Data: US20230096766A1, “AMINO ACID HAVING FUNCTIONAL GROUP CAPABLE OF INTERMOLECULAR HYDROGEN BONDING, PEPTIDE COMPOUND CONTAINING SAME AND METHOD FOR PRODUCTION THEREOF” (Chugai Seiyaku Kabushiki Kaisha, priority 2018, published 2023)
*1 amine or outer side, *2 acyl side, *3 side chain or, on linkers, in order; H or OH if unused. Where a SMILES comes first, the peptide text is derived from it. Bridges are numbered along the chain shown (N, C = ends). [ ]: non-standard residue; d: D form. The star is where a group is joined. NMeHph(3-OMe-4-CONHMe) = CNC(=O)c1ccc(CC[C@H](NC)C(=O)O)cc1OC; NMeAla(4-thiazolyl) = CN[C@@H](Cc1cscn1)C(=O)O; X11 = CNC(=O)c1ccc(CCN(CC(=O)[*:2])[*:1])cc1OC; NMePhe(3-Cl) = CN[C@@H](Cc1cccc(Cl)c1)C(=O)O; X12 = O=C([C@H](CCCC(O)C(F)(F)F)N[*:1])[*:2]; Tyr(3-OMe) = COc1cc(C[C@H](N)C(=O)O)ccc1O; NMeF = CN[C@@H](Cc1ccccc1)C(=O)O; NMeI = CC[C@H](C)[C@H](NC)C(=O)O; NMeD = CN[C@@H](CC(=O)O)C(=O)O; CH2CH(OH)CF3 = OC(C*)C(F)(F)F; NMeL = CN[C@@H](CC(C)C)C(=O)O; Propyl(2R-OH) = C[C@@H](O)C*; NMeV = CN[C@H](C(=O)O)C(C)C; NMeAbu = CC[C@H](NC)C(=O)O; NMeA = CN[C@@H](C)C(=O)O; Piperidide = C1CCN(*)CC1; NBuGly = CCCCNCC(=O)O; NPrGly = CCCNCC(=O)O; X3 = C[C@H](O)C*; Sar = CNCC(=O)O; tBu = CC(C)(C)*

Experiment: in vitro
Conditions: human, Caco-2, Caco-2 (cm/sec)

Row | Structure (SMILES) | Papp [×10⁻⁶ cm/s]
1 | CC(C)C[C@@H]1NC(=O)[C@H](Cc2ccccc2)N(C)C(=O)[C@H](COC(C)(C)C)NC(=O)[C@H](Cc2ccccc2)N(C)C(=O)[C@H](C)N(C)C(=O)[C@H](CC(C)C)N(C)C(=O)[C@@H](C)NC(=O)C[C@@H](C(=O)N2CCCCC2)N(C)C(=O)[C@H](Cc2ccccc2)N(C)C(=O)[C@H]([C@@H](C)O)NC(=O)[C@H](C(C)C)N(C)C1=O [pd208] ([dA][NMeL][NMeA][NMeF]S(tBu)[NMeF]L[NMeV]T[NMeF][NMeD]-Piperidide; lactam N-11) | 1.7
2 | CC[C@H]1C(=O)N[C@@H](Cc2ccc(O)c(OC)c2)C(=O)N(C)[C@@H](CC(C)C)C(=O)N(C)[C@@H](CC(C)C)C(=O)N[C@@H](C(C)C)C(=O)N(C)[C@@H](Cc2ccccc2)C(=O)N(C)[C@@H](CC(C)C)C(=O)N[C@@H]([C@@H](C)O)C(=O)N(C)CC(=O)N(C)[C@@H](CC(C)C)C(=O)N[C@H](C(=O)N2CCCCC2)CC(=O)N1C [Compound E06] ([NMeAbu][Tyr(3-OMe)][NMeL][NMeL]V[NMeF][NMeL]T[Sar][NMeL]D-Piperidide; lactam N-11) | 0.97
3 | CCCCN1CC(=O)N(C)[C@@H](Cc2ccccc2)C(=O)N[C@@H]([C@@H](C)CC)C(=O)N(C)[C@@H](CC(C)C)C(=O)N[C@@H]([C@@H](C)O)C(=O)N(C)CC(=O)N(C)[C@@H](CCc2ccc(C(=O)NC)c(OC)c2)C(=O)N(C)[C@@H](CC(C)C)C(=O)N[C@@H](COC(C)(C)C)C(=O)N(C)[C@@H](CC(C)C)C(=O)N[C@H](C(=O)N2CCCCC2)CC1=O [AP232] ([NBuGly][NMeF]I[NMeL]T[Sar][NMeHph(3-OMe-4-CONHMe)][NMeL]S(tBu)[NMeL]D-Piperidide; lactam N-11) | 2
4 | CC[C@H](C)[C@H]1C(=O)N[C@@H](COC[C@@H](C)O)C(=O)N(C)CC(=O)N(C)[C@@H](CC(C)C)C(=O)N[C@H](C(=O)N2CCCCC2)CC(=O)N(C)[C@@H](C)C(=O)N[C@@H](CC(C)C)C(=O)N(C)[C@@H](CC(C)C)C(=O)N(C)[C@@H](Cc2ccccc2)C(=O)N[C@@H](CC(C)C)C(=O)N(C)[C@@H](Cc2ccccc2)C(=O)N1C [AP85] ([NMeA]L[NMeL][NMeF]L[NMeF][NMeI]S(Propyl(2R-OH))[Sar][NMeL]D-Piperidide; lactam N-11) | 5.2
5 | CCCN1CC(=O)N(C)[C@@H](CC(C)C)C(=O)N[C@@H](COC[C@H](C)O)C(=O)N(C)[C@@H](Cc2cccc(Cl)c2)C(=O)N(C)[C@@H](C(C)C)C(=O)N[C@H](C(=O)N2CCCCC2)CC(=O)N[C@H](C(C)C)C(=O)N(C)[C@@H](Cc2ccccc2)C(=O)N[C@@H](CC(C)C)C(=O)N(C)[C@@H](CC(C)C)C(=O)N[C@@H]([C@@H](C)O)C1=O [AP70] ([dV][NMeF]L[NMeL]T[NPrGly][NMeL]S(X3)[NMePhe(3-Cl)][NMeV]D-Piperidide; lactam N-11) | 0.75
6 | CC[C@H]1C(=O)N[C@@H](CC(C)C)C(=O)N(C)[C@@H](CC(C)C)C(=O)N(C)[C@@H](Cc2ccccc2)C(=O)N[C@@H](CC(C)C)C(=O)N(C)[C@@H](CC(C)C)C(=O)N(CCc2ccc(C(=O)NC)c(OC)c2)CC(=O)N[C@@H]([C@@H](C)O)C(=O)N(C)CC(=O)N(C)[C@@H](CC(C)C)C(=O)N[C@H](C(=O)N2CCCCC2)CC(=O)N1C [AP223] ([NMeAbu]L[NMeL][NMeF]L[NMeL][X11]T[Sar][NMeL]D-Piperidide; lactam N-11) | 1.6

Same assay, conditions: human, Caco-2, Caco-2 (cm/sec) Papp

Row | Structure (SMILES) | Papp [×10⁻⁶ cm/s]
7 | CC(C)C[C@@H]1NC(=O)[C@H](Cc2ccccc2)N(C)C(=O)[C@H](C)N(C)C(=O)C[C@@H](C(=O)N2CCCCC2)NC(=O)[C@H](CC(C)C)N(C)C(=O)[C@H](Cc2ccccc2)N(C)C(=O)[C@H](Cc2ccccc2)NC(=O)[C@H](Cc2cscn2)N(C)C(=O)[C@H](C)N(C)C(=O)[C@H]([C@@H](C)O)NC(=O)[C@H](CC(C)C)N(C)C1=O [pd226] ([NMeA][NMeF]L[NMeL]T[NMeA][NMeAla(4-thiazolyl)]F[NMeF][NMeL]D-Piperidide; lactam N-11) | 0.68

Same assay, conditions: human, Caco-2, Caco-2 (membrane permeability)

Row | Structure (SMILES) | Papp [×10⁻⁶ cm/s]
8 | CC[C@H](C)[C@H]1C(=O)N[C@@H]([C@@H](C)O)C(=O)N(C)CC(=O)N(C)[C@@H](CC(C)C)C(=O)N[C@H](C(=O)N2CCCCC2)CC(=O)N(C)[C@@H](C(C)C)C(=O)N[C@@H](CC(C)C)C(=O)N(C)[C@@H](CC(C)C)C(=O)N(C)[C@@H](Cc2ccccc2)C(=O)N[C@@H](CCCC(O)C(F)(F)F)C(=O)N(C)[C@@H](Cc2ccccc2)C(=O)N1C (stereo partly drawn) [Compound D05] ([NMeV]L[NMeL][NMeF][X12][NMeF][NMeI]T[Sar][NMeL]D-Piperidide; lactam N-11) | 0.36
9 | CCCCN1CC(=O)N(C)[C@@H](Cc2ccccc2)C(=O)N(C)[C@@H](CC(C)C)C(=O)N[C@@H](COCC(O)C(F)(F)F)C(=O)N(C)[C@@H](CC(C)C)C(=O)N[C@H](C(=O)N2CCCCC2)CC(=O)N(C)CC(=O)N(C)[C@@H](Cc2ccccc2)C(=O)N[C@@H]([C@@H](C)CC)C(=O)N(C)[C@@H](CC(C)C)C(=O)N[C@@H]([C@@H](C)O)C1=O (stereo partly drawn) [Compound C07] ([Sar][NMeF]I[NMeL]T[NBuGly][NMeF][NMeL]S(CH2CH(OH)CF3)[NMeL]D-Piperidide; lactam N-11) | 0.45
10 | CCCCN1CC(=O)N(C)[C@@H](Cc2ccccc2)C(=O)N[C@@H]([C@@H](C)CC)C(=O)N(C)[C@@H](CC(C)C)C(=O)N[C@@H]([C@@H](C)O)C(=O)N(CCCC)CC(=O)N(C)[C@@H](Cc2ccccc2)C(=O)N(C)[C@@H](CC(C)C)C(=O)N[C@@H](CCC(=O)NC)C(=O)N(C)[C@@H]([C@@H](C)CC)C(=O)N[C@H](C(=O)N2CCCCC2)CC1=O [Compound J06] ([NBuGly][NMeF]I[NMeL]T[NBuGly][NMeF][NMeL]E(NHMe)[NMeI]D-Piperidide; lactam N-11) | 0.0085
